In one series the target is D(2) dopamine receptor (Homo sapiens, UniProt P14416). Kind of series: Agonist activity at dopamine D2 receptor. The format is functional.
A further series has as its target D(3) dopamine receptor (Homo sapiens, UniProt P35462). The experiment in a line: Agonist activity at dopamine D3 receptor. The format is functional.
Series [1] in a line: Aqueous solubility at pH 7.4. Format: physicochemical.
A further series concerns the target T1, Cytochrome P450 1A2 (Homo sapiens, UniProt P05177).
T1 sequence (P05177 whole entry): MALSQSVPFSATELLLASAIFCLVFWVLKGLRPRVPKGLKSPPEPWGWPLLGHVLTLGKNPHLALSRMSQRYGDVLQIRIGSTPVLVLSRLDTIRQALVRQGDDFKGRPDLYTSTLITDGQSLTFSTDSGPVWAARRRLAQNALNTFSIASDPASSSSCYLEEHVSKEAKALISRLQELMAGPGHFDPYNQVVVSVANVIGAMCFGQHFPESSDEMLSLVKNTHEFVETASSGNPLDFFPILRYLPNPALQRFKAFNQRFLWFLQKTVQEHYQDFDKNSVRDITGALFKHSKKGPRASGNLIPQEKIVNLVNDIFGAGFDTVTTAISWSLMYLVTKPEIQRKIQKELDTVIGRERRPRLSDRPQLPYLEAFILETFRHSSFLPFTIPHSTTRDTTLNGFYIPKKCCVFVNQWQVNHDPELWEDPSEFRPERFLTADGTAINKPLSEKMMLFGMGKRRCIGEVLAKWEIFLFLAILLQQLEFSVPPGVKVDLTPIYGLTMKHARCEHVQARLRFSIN
The experiment in a line: Inhibition of human recombinant CYP1A2. Format: ADME.

The next series concerns the target Cytochrome P450 2C9 (Homo sapiens, UniProt P11712). The experiment in a line: Inhibition of human recombinant CYP2C9. Format: ADME.
In the next series the target is Cytochrome P450 2C19 (Homo sapiens, UniProt P33261). Kind of series: Inhibition of human recombinant CYP2C19. The format is ADME.
The target in another series is Cytochrome P450 2D6 (Homo sapiens, UniProt P10635). Kind of series: Inhibition of human recombinant CYP2D6. Format: ADME.
Series [2] has as its target T2, Cytochrome P450 3A4 (Homo sapiens, UniProt P08684). Kind of series: Inhibition of human recombinant CYP3A4 using diethoxyfluorescein as substrate. Format: ADME.
Series [3] addresses T2, Cytochrome P450 3A4. The experiment in a line: Inhibition of human recombinant CYP3A4 using 7-{3-(4-phenylpiperazin-1-ylmethyl)benzyl}resorufin as substrate. Format: ADME.
The target of series [4] is Voltage-gated inwardly rectifying potassium channel KCNH2 (Homo sapiens, UniProt Q12809). The experiment in a line: Inhibition of human ERG.
A further series addresses Motilin receptor (Homo sapiens, UniProt O43193). The experiment in a line: Agonist activity at human recombinant motilin receptor expressed in CHO cells by FLIPR assay. Format: functional, cell-based.
In series [5] the target is Growth hormone secretagogue receptor type 1 (Homo sapiens, UniProt Q92847). The experiment in a line: Agonist activity at human ghrelin receptor. The format is functional.
For series [6], the target named is 5-hydroxytryptamine receptor 6 (Homo sapiens, UniProt P50406). The experiment in a line: Agonist activity at 5HT6 receptor. The format is functional.
A further series deals with Stomach. Kind of series: Increase in electric field stimulated contractile response in New Zealand White rabbit gastric antrum at 3 uM after 60 mins. The format is functional. Particulars: Oryctolagus cuniculus, 1 h.
Series [7] has as its system Liver microsomes. Kind of series: Intrinsic clearance in rat liver microsomes after 30 mins. Format: ADME, Microsome. Particulars: 0.5 h. Background: Microsomes from liver hold many membrane-bound enzymes, among them those of drug oxidation.
The test system of series [8] is Liver microsomes. The experiment in a line: Intrinsic clearance in human liver microsomes after 30 mins. Format: ADME, Microsome. Particulars: 0.5 h.
The nature of series [9]: Half life in mouse at 10 mg/kg, po. Format: ADME, organism-based. Set-up: dose 10 mg/kg, route oral. The following applies: in vivo.
Series [10] in a line: Tmax in mouse at 10 mg/kg, po. The format is ADME, organism-based. Set-up: dose 10 mg/kg, route oral. Particulars: in vivo.
Series [11] can be described thus: Cmax in mouse at 10 mg/kg, po. Set-up: dose 10 mg/kg, route oral. Particulars: in vivo. The format is ADME, organism-based.

In brackets after ≈: the same amount, converted by molar mass.

Sequence of Cytochrome P450 2D6 (P10635 whole entry): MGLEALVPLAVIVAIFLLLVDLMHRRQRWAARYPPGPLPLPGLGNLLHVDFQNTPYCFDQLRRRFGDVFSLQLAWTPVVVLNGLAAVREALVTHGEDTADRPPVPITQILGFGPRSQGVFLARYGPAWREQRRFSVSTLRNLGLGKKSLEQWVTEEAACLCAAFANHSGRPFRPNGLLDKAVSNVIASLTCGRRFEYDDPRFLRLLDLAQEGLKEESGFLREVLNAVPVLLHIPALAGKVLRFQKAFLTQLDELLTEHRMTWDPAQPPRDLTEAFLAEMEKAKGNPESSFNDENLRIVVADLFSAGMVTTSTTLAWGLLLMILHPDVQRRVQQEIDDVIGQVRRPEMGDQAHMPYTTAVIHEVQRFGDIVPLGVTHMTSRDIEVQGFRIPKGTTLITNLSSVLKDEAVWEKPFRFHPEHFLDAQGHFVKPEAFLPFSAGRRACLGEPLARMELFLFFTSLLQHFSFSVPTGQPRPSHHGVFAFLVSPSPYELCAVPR
Sequence of D(2) dopamine receptor (P14416 whole entry): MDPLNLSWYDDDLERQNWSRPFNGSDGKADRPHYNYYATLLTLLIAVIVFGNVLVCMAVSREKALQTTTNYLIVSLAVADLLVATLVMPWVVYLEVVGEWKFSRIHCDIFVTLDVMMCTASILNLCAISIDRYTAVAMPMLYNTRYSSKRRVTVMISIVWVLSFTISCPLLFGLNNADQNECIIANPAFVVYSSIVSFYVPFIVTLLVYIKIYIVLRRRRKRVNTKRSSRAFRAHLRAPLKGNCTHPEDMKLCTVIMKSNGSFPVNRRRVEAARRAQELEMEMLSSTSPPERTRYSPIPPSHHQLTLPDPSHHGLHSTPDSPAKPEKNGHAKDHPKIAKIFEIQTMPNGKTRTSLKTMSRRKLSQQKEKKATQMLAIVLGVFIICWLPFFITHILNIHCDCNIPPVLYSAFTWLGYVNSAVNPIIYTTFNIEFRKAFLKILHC
Sequence of Motilin receptor (O43193 whole entry): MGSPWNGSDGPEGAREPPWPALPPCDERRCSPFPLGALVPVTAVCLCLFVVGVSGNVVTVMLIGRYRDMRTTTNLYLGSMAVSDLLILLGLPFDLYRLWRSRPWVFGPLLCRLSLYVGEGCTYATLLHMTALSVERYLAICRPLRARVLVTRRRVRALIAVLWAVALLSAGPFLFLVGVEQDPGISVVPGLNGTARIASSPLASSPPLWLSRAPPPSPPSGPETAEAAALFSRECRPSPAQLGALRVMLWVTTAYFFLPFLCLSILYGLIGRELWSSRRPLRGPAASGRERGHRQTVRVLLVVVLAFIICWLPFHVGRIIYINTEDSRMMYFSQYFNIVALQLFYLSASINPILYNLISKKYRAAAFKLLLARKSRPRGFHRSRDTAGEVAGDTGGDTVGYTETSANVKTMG
Sequence of D(3) dopamine receptor (P35462 whole entry): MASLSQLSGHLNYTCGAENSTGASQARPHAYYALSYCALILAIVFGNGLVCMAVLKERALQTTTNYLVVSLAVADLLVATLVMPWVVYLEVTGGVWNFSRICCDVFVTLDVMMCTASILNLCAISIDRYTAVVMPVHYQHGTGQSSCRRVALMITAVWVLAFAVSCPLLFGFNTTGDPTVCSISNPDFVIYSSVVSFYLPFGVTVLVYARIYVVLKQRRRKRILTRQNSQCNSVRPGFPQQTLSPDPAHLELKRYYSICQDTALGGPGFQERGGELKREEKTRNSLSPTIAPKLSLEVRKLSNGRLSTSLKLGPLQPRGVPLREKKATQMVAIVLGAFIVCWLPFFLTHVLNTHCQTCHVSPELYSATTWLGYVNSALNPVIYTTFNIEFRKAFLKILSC
T2 sequence (P08684 whole entry): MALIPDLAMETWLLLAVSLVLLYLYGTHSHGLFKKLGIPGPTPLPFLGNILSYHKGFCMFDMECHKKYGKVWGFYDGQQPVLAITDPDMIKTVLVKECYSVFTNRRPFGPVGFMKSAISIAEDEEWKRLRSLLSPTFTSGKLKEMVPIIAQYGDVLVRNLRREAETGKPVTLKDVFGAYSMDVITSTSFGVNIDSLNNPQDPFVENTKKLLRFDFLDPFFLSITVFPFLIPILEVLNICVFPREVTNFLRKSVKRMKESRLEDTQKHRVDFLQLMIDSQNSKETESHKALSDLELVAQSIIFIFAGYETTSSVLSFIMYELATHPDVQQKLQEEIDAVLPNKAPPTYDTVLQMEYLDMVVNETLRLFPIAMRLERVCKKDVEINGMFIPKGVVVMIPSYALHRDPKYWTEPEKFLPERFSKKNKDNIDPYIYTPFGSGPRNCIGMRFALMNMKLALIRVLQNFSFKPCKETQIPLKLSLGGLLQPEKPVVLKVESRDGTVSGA
Sequence of Growth hormone secretagogue receptor type 1 (Q92847 whole entry): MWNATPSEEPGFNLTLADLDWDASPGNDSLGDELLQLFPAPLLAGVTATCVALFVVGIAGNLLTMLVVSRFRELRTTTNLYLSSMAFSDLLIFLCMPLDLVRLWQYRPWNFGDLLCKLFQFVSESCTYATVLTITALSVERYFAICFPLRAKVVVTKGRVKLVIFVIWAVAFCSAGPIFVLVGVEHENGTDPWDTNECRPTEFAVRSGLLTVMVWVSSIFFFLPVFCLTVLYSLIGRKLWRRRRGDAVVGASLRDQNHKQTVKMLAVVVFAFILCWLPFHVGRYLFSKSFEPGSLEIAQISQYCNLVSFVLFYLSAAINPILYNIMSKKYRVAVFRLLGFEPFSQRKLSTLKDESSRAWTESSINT
Sequence of Cytochrome P450 2C19 (P33261 whole entry): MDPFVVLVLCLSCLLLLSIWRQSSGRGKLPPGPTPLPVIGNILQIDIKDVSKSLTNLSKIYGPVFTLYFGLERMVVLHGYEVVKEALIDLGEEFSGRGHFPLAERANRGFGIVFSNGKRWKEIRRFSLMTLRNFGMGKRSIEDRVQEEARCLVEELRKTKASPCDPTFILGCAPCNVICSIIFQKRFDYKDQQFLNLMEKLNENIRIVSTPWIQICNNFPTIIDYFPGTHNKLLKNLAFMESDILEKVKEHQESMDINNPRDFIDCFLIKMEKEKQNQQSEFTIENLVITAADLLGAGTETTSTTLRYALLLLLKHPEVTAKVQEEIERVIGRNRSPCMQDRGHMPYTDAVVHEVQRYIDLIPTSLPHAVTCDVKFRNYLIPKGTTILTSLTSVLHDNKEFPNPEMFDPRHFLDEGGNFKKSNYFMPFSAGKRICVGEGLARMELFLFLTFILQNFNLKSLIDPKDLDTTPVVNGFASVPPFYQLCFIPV
Sequence of Voltage-gated inwardly rectifying potassium channel KCNH2 (Q12809 whole entry): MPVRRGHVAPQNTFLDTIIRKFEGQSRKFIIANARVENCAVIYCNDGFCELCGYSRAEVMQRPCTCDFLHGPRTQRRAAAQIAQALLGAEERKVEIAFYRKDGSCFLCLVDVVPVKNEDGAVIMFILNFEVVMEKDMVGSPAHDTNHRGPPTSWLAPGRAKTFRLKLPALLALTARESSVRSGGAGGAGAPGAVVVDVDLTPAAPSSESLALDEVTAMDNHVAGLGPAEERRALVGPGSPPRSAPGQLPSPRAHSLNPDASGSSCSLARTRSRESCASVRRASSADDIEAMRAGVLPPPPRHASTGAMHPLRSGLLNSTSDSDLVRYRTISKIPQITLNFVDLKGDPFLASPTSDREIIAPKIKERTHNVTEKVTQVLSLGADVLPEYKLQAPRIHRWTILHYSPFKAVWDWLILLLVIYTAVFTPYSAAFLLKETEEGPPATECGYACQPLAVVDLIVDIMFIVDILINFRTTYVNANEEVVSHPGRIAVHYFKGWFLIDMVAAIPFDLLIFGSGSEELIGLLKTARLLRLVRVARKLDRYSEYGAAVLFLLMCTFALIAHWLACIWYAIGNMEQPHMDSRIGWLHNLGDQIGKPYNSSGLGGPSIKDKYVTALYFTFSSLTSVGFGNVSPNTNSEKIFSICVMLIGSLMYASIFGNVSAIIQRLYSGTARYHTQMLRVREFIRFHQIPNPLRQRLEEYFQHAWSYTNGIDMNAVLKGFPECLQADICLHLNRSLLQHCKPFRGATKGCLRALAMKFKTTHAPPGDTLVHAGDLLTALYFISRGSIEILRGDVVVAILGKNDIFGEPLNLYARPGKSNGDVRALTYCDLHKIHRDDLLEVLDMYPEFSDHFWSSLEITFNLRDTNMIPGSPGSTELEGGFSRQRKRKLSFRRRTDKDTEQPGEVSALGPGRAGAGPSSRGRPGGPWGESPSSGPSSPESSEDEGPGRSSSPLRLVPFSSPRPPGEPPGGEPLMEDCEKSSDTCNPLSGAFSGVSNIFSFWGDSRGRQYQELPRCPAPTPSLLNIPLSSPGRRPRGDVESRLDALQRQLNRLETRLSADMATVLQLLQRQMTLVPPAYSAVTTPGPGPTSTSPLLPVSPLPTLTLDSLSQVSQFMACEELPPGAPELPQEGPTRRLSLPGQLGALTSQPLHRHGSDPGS
Sequence of Cytochrome P450 2C9 (P11712 whole entry): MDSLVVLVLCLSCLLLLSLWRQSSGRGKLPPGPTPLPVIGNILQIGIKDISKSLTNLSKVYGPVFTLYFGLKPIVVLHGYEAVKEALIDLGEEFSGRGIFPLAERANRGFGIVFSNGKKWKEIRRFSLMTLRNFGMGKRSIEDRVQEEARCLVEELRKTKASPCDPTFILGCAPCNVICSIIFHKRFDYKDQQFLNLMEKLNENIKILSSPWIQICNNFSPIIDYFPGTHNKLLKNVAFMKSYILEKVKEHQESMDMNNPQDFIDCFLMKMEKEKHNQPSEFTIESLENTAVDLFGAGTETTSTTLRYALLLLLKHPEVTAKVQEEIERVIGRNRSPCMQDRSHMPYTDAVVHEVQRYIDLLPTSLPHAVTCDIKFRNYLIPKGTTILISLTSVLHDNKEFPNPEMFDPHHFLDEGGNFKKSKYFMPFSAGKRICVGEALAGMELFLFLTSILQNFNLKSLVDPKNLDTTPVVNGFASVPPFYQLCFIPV

A word on the Ki: it is the dissociation constant of the complex between target and ligand, obtained from inhibition or displacement. The low end stands for a stronger hold on the target, the high end for a looser hold on the target. The solubility is the concentration that dissolves in the medium under given conditions. Low values mean a poorly soluble substance, high ones a readily soluble substance. As a reminder, the IC50 is the concentration needed to halve the response being measured. What is called EC50 is the concentration giving half of the maximal effect. Regarding `CCCCc1ccc(S(=O)(=O)Nc2ccc3c(c2)CCN(Cc2ccn[nH]2)CC3)cc1`, the figures for the Ki on D(2) dopamine receptor and at D(3) dopamine receptor were 100 nM and 3.98 nM, respectively. Besides, the concentration in solution in series [1] (solubility) was 10000 µg/mL (≈ 22.8 mM). In addition, the IC50 is 29000 nM on Cytochrome P450 1A2; 600 nM at Cytochrome P450 2C9; 8800 nM on Cytochrome P450 2C19; below 100 nM on Cytochrome P450 2D6; 800 nM at Cytochrome P450 3A4 [2]; 1900 nM on Cytochrome P450 3A4 [3]. Further, in series [4], the IC50 is 2510 nM. Further, the EC50 on Motilin receptor was 2.51 nM; in series [5], 79.4 nM.

For orientation: Emax means the size of the effect at its maximum, as opposed to the concentration needed. In the case of `O=S(=O)(Nc1ccc2c(c1)CCN(Cc1cc[nH]n1)CC2)c1ccc(-c2ccccn2)s1`, the Ki is 158 nM in series [6], above 794 nM at D(2) dopamine receptor and 200 nM on D(3) dopamine receptor. In addition, the 50% inhibitory concentration (IC50) on Cytochrome P450 2C9 was 400 nM; at Cytochrome P450 2D6 it was 200 nM. Also, the Emax at 3 µM in the series with Stomach was determined as 190%. The EC50 on Motilin receptor is 7.94 nM; in series [5], above 10000 nM.

Consider `O=S(=O)(Cc1ccc2c(c1)CCNCC2)c1ccc(-c2ccc(F)cc2)cc1`, for which the CL in the series with Liver microsomes [7] and in the series with Liver microsomes [8] was below 1 mL/min/g each time. The 50% inhibitory concentration (IC50) on Cytochrome P450 2D6 was found to be 200 nM. The compound further displayed an Emax at 3 µM in the series with Stomach of 166%. Moreover, the EC50 was 12.6 nM at Motilin receptor and above 10000 nM in series [5].

The half-life is how long it takes for the measured level to halve. Lower therefore signals rapid decline. The Tmax is the time from dosing to the highest level. The term Cmax denotes the highest concentration seen after dosing. As to `O=S(=O)(Nc1ccc2c(c1)CCN(Cc1cc[nH]n1)CC2)c1ccc(N2CCOCC2)nc1`, the Ki in series [6] is 631 nM; at D(2) dopamine receptor, above 3160 nM; at D(3) dopamine receptor it was 631 nM. Besides, the concentration in solution in series [1] (solubility) came to 371 µg/mL (≈ 0.792 mM). The CL in the series with Liver microsomes [7] came out at 3.8 mL/min/g; in the series with Liver microsomes [8], 6.6 mL/min/g. Also, the IC50 at Cytochrome P450 1A2 is above 8000 nM; at Cytochrome P450 2C19 it was above 8000 nM; on Cytochrome P450 2D6, below 1000 nM; at Cytochrome P450 3A4 [2] it was above 8000 nM; on Cytochrome P450 3A4 [3], above 8000 nM; in series [4], above 15800 nM. In addition, in series [9], the half-life is 1.5 h. In addition, the Tmax in [10] turned out to be 2 h. The compound further displayed a Cmax in series [11] of 273 ng/mL. The EC50 is 6.31 nM at Motilin receptor and above 1000 nM in series [5].

The values are drawn from ChEMBL document CHEMBL1154336, “The discovery and optimisation of benzazepine sulfonamide and sulfones as potent agonists of the motilin receptor” (Bioorg Med Chem Lett, 2009).
